Measurements from publication PMC10011554, “BET inhibitor trotabresib in heavily pretreated patients with solid tumors and diffuse large B-cell lymphomas” (Nature Communications, 2023).

Test: Prediction of human PK and exposure by allometric scaling; HED calculation
Description: Protocol CC- 90010- ST-001 Celgene Corporation
Figure 3: CC- 90010- mediated Tumor Growth Inhibition of GBM3 (Glioblastoma Multiforme Patient-derived Xenograft) with and without Temozolomide […]
BID = twice daily; IP = investigational product (CC-90010); PO = by mouth; QD = once daily; SEM = standard […]
Source: Unpublished data from Celgene Corporation.
1.2.2. Nonclinical Pharmacokinetics and Drug Metabolism
In vitro and in vivo studies have been conducted to characterize the absorption, PK, distribution, metabolism and elimination of CC-90010. Robust and reproducible bioanalytical methods for the quantitation of CC-90010 levels were developed and used in PK and toxicokinetic studies.
Human PK parameters and exposures were predicted using allometric scaling.
Pharmacokinetics and oral bioavailability of CC-90010 were evaluated in Sprague-Dawley rats […]
clearance than females. […]
The metabolism of CC-90010 was evaluated in vitro using hepatocytes from various species (mouse, rat, rabbit, dog, monkey, and human). […]
Based on the doses and exposures at which the principal treatment-related effects occurred in the GLP-compliant, 4-week rat and dog studies, both species are considered of similar sensitivity to the toxicities associated with CC-90010 administration. […] This CC-90010 dose was calculated using the approach described in the ICH S9 Guideline entitled “Nonclinical Evaluation for […]

SMILES: Cn1cc(-c2cc(S(C)(=O)=O)ccc2OCC2CC2)c2ccccc2c1=O [trotabresib]
- HED (from dog HNSTD): 2.1 mg base/kg
- HED (from rat STD10): 3.2 mg base/kg
